Test results as given in PubChem BioAssay (NCI).
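These data come from cells grown in 96-well plates and exposed to compound for 48 hours at five concentrations. Definition used: TGI = concentration required for complete inhibition of growth.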

How the values were obtained:
Test in all cases: growth of human tumour cells (NCI), 48 h
786-0 renal = tested on: 786-0 renal
A498 renal = tested on: A498 renal
A549 NSCLC = tested on: A549 NSCLC
ACHN renal = tested on: ACHN renal
BT-549 breast = tested on: BT-549 breast
CAKI-1 renal = tested on: CAKI-1 renal
CCRF-CEM leukemia = tested on: CCRF-CEM leukemia
COLO 205 colon = tested on: COLO 205 colon
DU-145 prostate = tested on: DU-145 prostate
EKVX NSCLC = tested on: EKVX NSCLC
HCC-2998 colon = tested on: HCC-2998 colon
HCT-116 colon = tested on: HCT-116 colon
HCT-15 colon = tested on: HCT-15 colon
HL-60(TB) leukemia = tested on: HL-60(TB) leukemia
HOP-62 NSCLC = tested on: HOP-62 NSCLC
HOP-92 NSCLC = tested on: HOP-92 NSCLC
HS 578T breast = tested on: HS 578T breast
HT29 colon = tested on: HT29 colon
IGROV1 ovarian = tested on: IGROV1 ovarian
K-562 leukemia = tested on: K-562 leukemia
KM12 colon = tested on: KM12 colon
LOX IMVI melanoma = tested on: LOX IMVI melanoma
M14 melanoma = tested on: M14 melanoma
MALME-3M melanoma = tested on: MALME-3M melanoma
MCF7 breast = tested on: MCF7 breast
MDA-MB-231 breast = tested on: MDA-MB-231 breast
MDA-MB-435 = tested on: MDA-MB-435
MOLT-4 leukemia = tested on: MOLT-4 leukemia
NCI-H226 lung = tested on: NCI-H226 lung
NCI-H23 lung = tested on: NCI-H23 lung
NCI-H460 lung = tested on: NCI-H460 lung
NCI-H522 lung = tested on: NCI-H522 lung
NCI/ADR-RES ovarian = tested on: NCI/ADR-RES ovarian
OVCAR-3 ovarian = tested on: OVCAR-3 ovarian
OVCAR-4 ovarian = tested on: OVCAR-4 ovarian
OVCAR-5 ovarian = tested on: OVCAR-5 ovarian
OVCAR-8 ovarian = tested on: OVCAR-8 ovarian
PC-3 prostate = tested on: PC-3 prostate
RPMI-8226 leukemia = tested on: RPMI-8226 leukemia
RXF 393 renal = tested on: RXF 393 renal
SF-268 CNS = tested on: SF-268 CNS
SF-295 CNS = tested on: SF-295 CNS
SF-539 CNS = tested on: SF-539 CNS
SK-MEL-2 melanoma = tested on: SK-MEL-2 melanoma
SK-MEL-28 melanoma = tested on: SK-MEL-28 melanoma
SK-MEL-5 melanoma = tested on: SK-MEL-5 melanoma
SN12C renal = tested on: SN12C renal
SNB-19 CNS = tested on: SNB-19 CNS
SNB-75 CNS = tested on: SNB-75 CNS
SR leukemia = tested on: SR leukemia
SW-620 colon = tested on: SW-620 colon
T-47D breast = tested on: T-47D breast
TK-10 renal = tested on: TK-10 renal
U251 CNS = tested on: U251 CNS
UACC-257 melanoma = tested on: UACC-257 melanoma
UACC-62 melanoma = tested on: UACC-62 melanoma
UO-31 renal = tested on: UO-31 renal

Measured: TGI

ClCc1nc2ccccc2[nH]1
> 100 µM: all assays above
